The values that follow are results of earlier work, collected in patent US20160264934A1, “METHODS FOR MODULATING AND ASSAYING m6A IN STEM CELL POPULATIONS” (THE GENERAL HOSPITAL CORPORATION, priority 2015, published 2016).

This data set addresses ALKBH5 (Homo sapiens, UniProt Q6P6C2). The settings on record: HPLC-based assays.

SMILES strings stand for the structures.

Chain of ALKBH5 (Q6P6C2 whole entry, species assumed): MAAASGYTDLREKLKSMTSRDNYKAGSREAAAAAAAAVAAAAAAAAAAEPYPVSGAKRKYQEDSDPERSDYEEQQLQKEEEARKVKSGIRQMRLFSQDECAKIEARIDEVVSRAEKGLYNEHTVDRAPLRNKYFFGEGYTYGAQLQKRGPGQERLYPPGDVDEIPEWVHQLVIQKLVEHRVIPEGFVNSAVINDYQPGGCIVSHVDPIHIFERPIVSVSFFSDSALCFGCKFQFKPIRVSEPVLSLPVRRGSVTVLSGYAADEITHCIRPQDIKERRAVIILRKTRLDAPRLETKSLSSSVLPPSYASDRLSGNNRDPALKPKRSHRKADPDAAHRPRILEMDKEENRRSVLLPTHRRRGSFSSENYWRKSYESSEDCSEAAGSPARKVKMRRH

In the case of `Cc1ccc(Cl)c(Nc2ccccc2C(=O)O)c1Cl` [meclofenamic acid], the “inhibition of ALKBH5” value is given as “no inhibition”.
